# In patent US4920124A, “N-substituted 3,4-dihydropyrimidine compounds as agents for treating disorders of cardiovascular system” (Suntory Limited, priority 1987, dated 1990):
# Test system: vertebral artery
# Assay: vascular resistance of the vertebral artery in anesthetized dogs (ED30)
# Assay type: in vivo, dog
# Settings: Canis lupus familiaris, intravenous injection
row,Compound,ED30
1,"CC1=NC(C)=C(C(=O)OC(C)C)C(c2ccccc2[N+](=O)[O-])N1C(=O)OCCN(Cc1ccccc1)Cc1ccc(Cl)c(Cl)c1 (centres unmarked) [Example 1, 3-[2-{N-benzyl-N-(3,4-dichlorobenzyl)amino}ethoxycarbonyl]-5-isopropoxycarbonyl-2,6-dimethyl-4-(2-nitrophenyl)-3,4-dihydropyrimidine]",2.1 µg/kg
2,COc1ccc(CN(CCOC(=O)N2C(C)=NC(C)=C(C(=O)OC(C)C)C2c2ccccc2[N+](=O)[O-])Cc2ccccc2)cc1 (centres unmarked) [Example 2],1.8 µg/kg
3,CC1=NC(C)=C(C(=O)OC(C)C)C(c2ccccc2[N+](=O)[O-])N1C(=O)OCCN(Cc1ccccc1)Cc1ccc(F)cc1 (centres unmarked) [Example 3],2.6 µg/kg
4,CC1=NC(C)=C(C(=O)OC(C)C)C(c2ccccc2[N+](=O)[O-])N1C(=O)OCCN(Cc1ccccc1)Cc1ccc(Cl)cc1 (centres unmarked) [Example 4],2.9 µg/kg
5,CC1=NC(C)=C(C(=O)OC(C)C)C(c2ccccc2[N+](=O)[O-])N1C(=O)OCCN(Cc1ccccc1)Cc1ccc(C)cc1 (centres unmarked) [Example 5],2.8 µg/kg
6,CC1=NC(C)=C(C(=O)OC(C)C)C(c2ccccc2[N+](=O)[O-])N1C(=O)OCCN(Cc1ccc(F)cc1)Cc1ccc(F)cc1 (centres unmarked) [Example 6],1.3 µg/kg
7,CC1=NC(C)=C(C(=O)OC(C)C)C(c2ccccc2[N+](=O)[O-])N1C(=O)OCCN(Cc1ccccc1)Cc1ccccc1F (centres unmarked) [Example 9],2.3 µg/kg
8,COc1cccc(CN(CCOC(=O)N2C(C)=NC(C)=C(C(=O)OC(C)C)C2c2ccccc2[N+](=O)[O-])Cc2ccccc2)c1 (centres unmarked) [Example 10],1.8 µg/kg
9,CC1=NC(C)=C(C(=O)OC(C)C)C(c2ccccc2[N+](=O)[O-])N1C(=O)OCCN(Cc1ccccc1)Cc1cccc(F)c1 (centres unmarked) [Example 11],2.1 µg/kg
10,CC1=NC(C)=C(C(=O)OC(C)C)C(c2ccccc2[N+](=O)[O-])N1C(=O)OCCN(Cc1ccccc1)Cc1ccccc1Cl (centres unmarked) [Example 13],4.7 µg/kg

# Test system: vertebral artery
# Assay: time course of changes in the vascular resistance of the vertebral artery in anesthetized dogs (T1/2)
# Assay type: in vivo, dog
# Settings: injected with the ED30 doses
# Description: Adult dogs of either sex (7~14 kg in body weight) were anesthetized with at first thiopental sodium (35 mg/kg, intraperitoneal), anesthetized with urethane (400 mg/kg, intravenous) and chloralose (60 mg/kg, intravenous) and kept under artificial respiration throughout the experiment. After thoracotomy at the left first intercostal space, the vertebral artery was exposed and blood flow was measured with intracorporeal flow probe connected to an electromagnetic flowmeter (MF-27, Nihon Kohden).
# At the same time, continuous measurement of the following parameters was made: systemic blood pressure (mean pressure) at the right femoral artery, the limb lead II ECG, the heart rate with a tachometer triggered by the R wave of ECG, and the vascular resistance determined by loading a electronic divider unit (EO-601 G, Nihon Kohden) with the mean values of blood pressure and vertebral artery blood flow. All of these parameters were recorded simultaneously on a polygraph (RM-600, Nihon Kohden).
# All the test compounds were injected through a cannula inserted into the femoral vein.
# Selected compounds of the present invention were tested for their ability to reduce the resistance of the vertebral artery in anesthetized dogs.
# The animals were injected with the ED30 doses of test compounds and the time course of changes in the vascular resistance were studied in the same manner as in Example 26. The time course of changes can be as shown schematically in FIG. 1. From the curve shown in FIG. 1, the values of T1/2 (min) (the time to reach 50% of the resistance drop) were calculated. The results are shown in Table 3, in which the compound numbers correspond to the Example numbers.
row,Compound,T1/2 (the time to reach 50% of the resistance drop)
1,"CC1=NC(C)=C(C(=O)OC(C)C)C(c2ccccc2[N+](=O)[O-])N1C(=O)OCCN(Cc1ccccc1)Cc1ccc(Cl)c(Cl)c1 (centres unmarked) [Example 1, 3-[2-{N-benzyl-N-(3,4-dichlorobenzyl)amino}ethoxycarbonyl]-5-isopropoxycarbonyl-2,6-dimethyl-4-(2-nitrophenyl)-3,4-dihydropyrimidine]",> 25.0 min
2,COc1ccc(CN(CCOC(=O)N2C(C)=NC(C)=C(C(=O)OC(C)C)C2c2ccccc2[N+](=O)[O-])Cc2ccccc2)cc1 (centres unmarked) [Example 2],8.2 min
3,CC1=NC(C)=C(C(=O)OC(C)C)C(c2ccccc2[N+](=O)[O-])N1C(=O)OCCN(Cc1ccccc1)Cc1cccc(Cl)c1 (centres unmarked) [Example 14],10.6 min
4,CC1=NC(C)=C(C(=O)OC(C)C)C(c2ccccc2[N+](=O)[O-])N1C(=O)OCCN(Cc1ccccc1)Cc1ccc(Cl)cc1Cl (centres unmarked) [Example 15],> 20.0 min
5,CC1=NC(C)=C(C(=O)OC(C)C)C(c2ccccc2[N+](=O)[O-])N1C(=O)OCCN(Cc1ccccc1)Cc1ccc(C(F)(F)F)cc1 (centres unmarked) [Example 16],7.9 min
6,CC1=NC(C)=C(C(=O)OC(C)C)C(c2ccccc2[N+](=O)[O-])N1C(=O)OCCN(Cc1ccc(Cl)cc1)Cc1ccc([N+](=O)[O-])cc1 (centres unmarked) [Example 20],10.2 min
7,COc1ccc(CN(CCOC(=O)N2C(C)=NC(C)=C(C(=O)OC(C)C)C2c2ccccc2[N+](=O)[O-])Cc2ccc(Cl)c(Cl)c2)cc1 (centres unmarked) [Example 21],20.0 min
8,CC1=NC(C)=C(C(=O)OC(C)C)C(c2ccccc2[N+](=O)[O-])N1C(=O)OCCN(Cc1ccc(Cl)cc1)Cc1cccc(Cl)c1 (centres unmarked) [Example 22],19.5 min
9,"CC1=NC(C)=C(C(=O)OC(C)C)C(c2cccc([N+](=O)[O-])c2)N1C(=O)OCCN(Cc1ccccc1)Cc1ccc(Cl)c(Cl)c1 (centres unmarked) [Example 24, 3-[2-{N-benzyl-N-(3,4-dichlorobenzyl)amino}ethoxycarbonyl]-5-isopropoxycarbonyl-2,6-dimethyl-4-(3-nitrophenyl)-3,4-dihydropyrimidine]",16.0 min
10,CC1=NC(C)=C(C(=O)OC(C)C)C(c2ccccc2[N+](=O)[O-])N1C(=O)OCCN(Cc1ccccc1)Cc1c(Cl)cccc1Cl (centres unmarked) [Example 25],11.7 min
